ChEMBL document CHEMBL1141785, “Cimipronidine, a cyclic guanidine alkaloid from Cimicifuga racemosa” (J Nat Prod, 2005)
Active and inactive are the calls of the source. The rule behind the calls is not given here.

Biological target: 5-hydroxytryptamine receptor 7 (Homo sapiens) (UniProt P34969)
Experiment: Binding affinity to 5HT7 receptor

5-hydroxytryptamine receptor 7 (Homo sapiens), sequence (P34969 whole entry): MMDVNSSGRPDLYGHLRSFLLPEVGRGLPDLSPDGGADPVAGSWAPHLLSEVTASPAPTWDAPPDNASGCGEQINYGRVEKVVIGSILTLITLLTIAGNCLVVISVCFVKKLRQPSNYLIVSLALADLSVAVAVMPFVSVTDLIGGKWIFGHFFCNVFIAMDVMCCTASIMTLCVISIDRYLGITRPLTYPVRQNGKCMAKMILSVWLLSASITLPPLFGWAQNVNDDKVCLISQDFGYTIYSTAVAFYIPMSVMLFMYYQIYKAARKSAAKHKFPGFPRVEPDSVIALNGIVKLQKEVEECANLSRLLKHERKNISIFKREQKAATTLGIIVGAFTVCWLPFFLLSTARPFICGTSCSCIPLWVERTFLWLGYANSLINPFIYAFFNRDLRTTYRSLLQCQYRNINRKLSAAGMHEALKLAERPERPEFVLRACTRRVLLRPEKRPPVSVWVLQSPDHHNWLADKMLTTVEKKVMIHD

For `O=C(/C=C/c1ccc(O)c(O)c1)O[C@H](C(=O)O)[C@](O)(Cc1ccc(O)c(O)c1)C(=O)O`, the Activity was “Active”.
`N=C(N)N1CCCC1CC(=O)O` (configuration not stated) was tested, and the Activity was “Active”.
